BigSolDB 2.1

O=C(O)c1cccnc1
solubility (mole fraction)
Conditions | in DMSO | in acetone | in ethanol | in ethyl acetate | in isopropanol | in methanol | in n-butanol | in n-propanol | in water
283.15 K | 0.0437 | 0.00062 | 0.00202 | 0.00033 | 0.00177 | 0.00238 | 0.0014 | 0.00179 | 0.00165
293.15 K | 0.0576 | 0.00104 | 0.00312 | 0.00054 | 0.00276 | 0.00382 | 0.00231 | 0.00285 | 0.00215
303.15 K | 0.0722 | 0.00166 | 0.00468 | 0.00093 | 0.00418 | 0.00587 | 0.00351 | 0.00435 | 0.00279
313.15 K | 0.0889 | 0.00262 | 0.00683 | 0.00149 | 0.00617 | 0.00889 | 0.00554 | 0.00641 | 0.00363
323.15 K | 0.107 | 0.00408 | 0.00978 | 0.00246 | 0.00891 | 0.0129 | 0.00855 | 0.00923 | 0.00458
333.15 K | 0.127 | – | 0.0136 | 0.00401 | 0.0125 | – | 0.0123 | 0.0131 | 0.00576
343.15 K | 0.15 | – | 0.0188 | 0.00603 | 0.0172 | – | 0.0178 | 0.0186 | 0.00704
353.15 K | – | – | – | – | – | – | 0.0253 | – | 0.00872
363.15 K | – | – | – | – | – | – | – | – | 0.0107
